In patent publication US9480259B2, “Pyrazolopyrans having herbicidal and pharmaceutical properties” (BASF SE, priority 2012, dated 2016):

Target: Arabidopsis thaliana SHMT
Assay: SHMT activity assay (ED50 SHMT), coupled with N5,N10-CH2-THF dehydrogenase, NADH at 340 nm
Assay type: biochemical
Conditions: inhibition of initial velocity of Arabidopsis thaliana SHMT
Method in brief: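 His-tagged SHMT purified on Ni-NTA. NADH formation followed at 340 nm for 30 min; ED50 from inhibition of initial velocity.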

EC50 [nM]	Structure (SMILES)
< 10	Cc1n[nH]c2c1C(c1ccc(-c3ccc(Cl)cc3)s1)(C1CCC1)C(C#N)=C(N)O2 (stereo not shown) [Compound 4.20]
< 10	Cc1n[nH]c2c1C(c1cc3cc(C(F)(F)F)ccc3s1)(C1CCC1)C(C#N)=C(N)O2 (stereo not shown) [Compound 4.22]
< 10	Cc1n[nH]c2c1C(c1cc(F)c3c(c1)C=CC(C)(C)O3)(C1CCC1)C(C#N)=C(N)O2 (stereo not shown) [Compound 4.23]
< 10	Cc1n[nH]c2c1C(c1cc(-c3ccccc3)cs1)(C1CCC1)C(C#N)=C(N)O2 (stereo not shown) [Compound 4.24]
< 10	Cc1n[nH]c2c1C(c1ccc3c(c1)OC(F)(F)O3)(C1CCC1)C(C#N)=C(N)O2 (stereo not shown) [Compound 4.25]
< 10	Cc1n[nH]c2c1C(c1ccc(-c3ccc(C(F)(F)F)cc3)s1)(C1CCC1)C(C#N)=C(N)O2 (stereo not shown) [Compound 4.26]
< 10	COC(=O)c1ccc(C2(C3CCC3)C(C#N)=C(N)Oc3[nH]nc(C)c32)s1 (stereo not shown) [Compound 4.27]
< 10	Cc1n[nH]c2c1C(c1cc3ccccc3s1)(C1CCC1)C(C#N)=C(N)O2 (stereo not shown) [Compound 4.28]
< 10	Cc1cccc(-c2ccc(C3(C4CCC4)C(C#N)=C(N)Oc4[nH]nc(C)c43)s2)c1 (stereo not shown) [Compound 4.29]
< 10	COC(=O)c1csc(C2(C3CCC3)C(C#N)=C(N)Oc3[nH]nc(C)c32)c1 (stereo not shown) [Compound 4.30]
< 10	CC1(C)C=Cc2cc(C3(C4CCC4)C(C#N)=C(N)Oc4[nH]ncc43)cc(F)c2O1 (stereo not shown) [Compound 4.31]
< 10	Cc1n[nH]c2c1C(c1ccc3c(c1)CCO3)(C1CCC1)C(C#N)=C(N)O2 (stereo not shown) [Compound 4.32]
< 10	Cc1n[nH]c2c1C(c1cc(-c3ccsc3)cs1)(C1CCC1)C(C#N)=C(N)O2 (stereo not shown) [Compound 4.33]
< 10	Cc1n[nH]c2c1C(c1ccc(-c3ccccc3C(F)(F)F)s1)(C1CCC1)C(C#N)=C(N)O2 (stereo not shown) [Compound 4.34]
< 10	Cc1n[nH]c2c1C(c1cncc(C(F)(F)F)c1)(C1CCC1)C(C#N)=C(N)O2 (stereo not shown) [Compound 4.35]
< 10	COc1ccc2cc(C3(C4CCC4)C(C#N)=C(N)Oc4[nH]nc(C)c43)ccc2c1 (stereo not shown) [Compound 4.36]
< 10	Cc1n[nH]c2c1C(c1nc3ccc(Cl)cc3o1)(C1CCC1)C(C#N)=C(N)O2 (stereo not shown) [Compound 4.37]
< 10	Cc1n[nH]c2c1C(c1cc3c(C(F)(F)F)cccc3s1)(C1CCC1)C(C#N)=C(N)O2 (stereo not shown) [Compound 4.38]
< 10	Cc1n[nH]c2c1C(c1cc(C(F)(F)F)c3nc(C(=O)O)ccc3c1)(C1CCC1)C(C#N)=C(N)O2 (stereo not shown) [Compound 4.39]

EC50 [nM]	Structure (SMILES)
< 10	Cc1n[nH]c2c1C(c1cc(-c3ccco3)cs1)(C1CCC1)C(C#N)=C(N)O2 (stereo not shown) [Compound 4.41]
< 10	Cc1n[nH]c2c1C(c1ccc3c(c1)nnn3C(C)C)(C1CCC1)C(C#N)=C(N)O2 (stereo not shown) [Compound 4.42]
< 10	Cc1n[nH]c2c1C(c1ccc(-c3cccc(C(F)(F)F)c3)s1)(C1CCC1)C(C#N)=C(N)O2 (stereo not shown) [Compound 4.43]
< 10	Cc1n[nH]c2c1C(c1ccc3c(c1)OCO3)(C1CCC1)C(C#N)=C(N)O2 (stereo not shown) [Compound 4.44]
< 10	Cc1n[nH]c2c1C(c1nc3c(Cl)cccc3s1)(C1CCC1)C(C#N)=C(N)O2 (stereo not shown) [Compound 4.45]
< 10	Cc1n[nH]c2c1C(c1nc3ccccc3o1)(C1CCC1)C(C#N)=C(N)O2 (stereo not shown) [Compound 4.46]
< 100	Cc1n[nH]c2c1C(c1cc(-c3cccc(F)c3)cs1)(C1CCC1)C(C#N)=C(N)O2 (stereo not shown) [Compound 4.47]
< 100	Cc1n[nH]c2c1C(c1ccc3[nH]c(C(F)(F)F)nc3c1)(C1CCC1)C(C#N)=C(N)O2 (stereo not shown) [Compound 4.48]
< 100	Cc1n[nH]c2c1C(c1ccc3c(c1)nnn3C)(C1CCC1)C(C#N)=C(N)O2 (stereo not shown) [Compound 4.49]
< 100	COc1c(F)cc(-c2ccc(C3(C4CCC4)C(C#N)=C(N)Oc4[nH]nc(C)c43)s2)cc1F (stereo not shown) [Compound 4.50]
< 100	Cc1n[nH]c2c1C(c1cc3ccccc3o1)(C1CCC1)C(C#N)=C(N)O2 (stereo not shown) [Compound 4.52]
< 100	Cc1n[nH]c2c1C(c1ccc(-c3cccc(C(F)(F)F)c3)s1)(C1CC1)C(C#N)=C(N)O2 (stereo not shown) [Compound 4.53]
< 100	N#CC1=C(N)Oc2[nH]ncc2C1(c1cc2ccccc2o1)C1CCC1 (stereo not shown) [Compound 4.54]
< 100	Cc1n[nH]c2c1C(c1ccc(-c3ccccc3)s1)(C1CC1)C(C#N)=C(N)O2 (stereo not shown) [Compound 4.55]
< 100	Cc1n[nH]c2c1C(c1ccc(-c3cccc(F)c3)s1)(C1CC1)C(C#N)=C(N)O2 (stereo not shown) [Compound 4.56]
< 100	Cc1n[nH]c2c1C(c1cc(-c3cccc(F)c3)cs1)(C1CC1)C(C#N)=C(N)O2 (stereo not shown) [Compound 4.60]
< 100	CCC1(c2cc(-c3cccs3)cs2)C(C#N)=C(N)Oc2[nH]nc(C)c21 (stereo not shown) [Compound 4.61]
< 1000	Cc1n[nH]c2c1C(c1cc3ccc(Cl)cc3s1)(C1CCC1)C(C#N)=C(N)O2 (stereo not shown) [Compound 4.63]
